The target of data set [1] is T1, human mGluR3 (hmGluR3) (Homo sapiens, UniProt Q14832).
T1 construct: expressed in transfected cells; host or cells: HEK-293 cells, transient co-transfection by electroporation
Description: Human mGluR3 positive allosteric modulator evaluation using Ca++ functional assay. It is filed as cell-based. As to conditions: hmGluR3 transiently over-expressed in HEK-293 cells; stimulated by EC50 glutamate concentration; intracellular Ca2+ (Fluo4AM, FLIPR Tetra). Summed up: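 HEK-293 cells transiently co-expressing hmGluR3, a chimeric G protein and two glutamate transporters; Fluo4 calcium read on FLIPR. Compound alone for 10 min (agonist), then EC50 glutamate for 3 min (PAM); 20-point curves gave EC50, duplicate, two independent runs.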

Counter-ions that a name gives are not always drawn.

T1 sequence (Q14832 23-879): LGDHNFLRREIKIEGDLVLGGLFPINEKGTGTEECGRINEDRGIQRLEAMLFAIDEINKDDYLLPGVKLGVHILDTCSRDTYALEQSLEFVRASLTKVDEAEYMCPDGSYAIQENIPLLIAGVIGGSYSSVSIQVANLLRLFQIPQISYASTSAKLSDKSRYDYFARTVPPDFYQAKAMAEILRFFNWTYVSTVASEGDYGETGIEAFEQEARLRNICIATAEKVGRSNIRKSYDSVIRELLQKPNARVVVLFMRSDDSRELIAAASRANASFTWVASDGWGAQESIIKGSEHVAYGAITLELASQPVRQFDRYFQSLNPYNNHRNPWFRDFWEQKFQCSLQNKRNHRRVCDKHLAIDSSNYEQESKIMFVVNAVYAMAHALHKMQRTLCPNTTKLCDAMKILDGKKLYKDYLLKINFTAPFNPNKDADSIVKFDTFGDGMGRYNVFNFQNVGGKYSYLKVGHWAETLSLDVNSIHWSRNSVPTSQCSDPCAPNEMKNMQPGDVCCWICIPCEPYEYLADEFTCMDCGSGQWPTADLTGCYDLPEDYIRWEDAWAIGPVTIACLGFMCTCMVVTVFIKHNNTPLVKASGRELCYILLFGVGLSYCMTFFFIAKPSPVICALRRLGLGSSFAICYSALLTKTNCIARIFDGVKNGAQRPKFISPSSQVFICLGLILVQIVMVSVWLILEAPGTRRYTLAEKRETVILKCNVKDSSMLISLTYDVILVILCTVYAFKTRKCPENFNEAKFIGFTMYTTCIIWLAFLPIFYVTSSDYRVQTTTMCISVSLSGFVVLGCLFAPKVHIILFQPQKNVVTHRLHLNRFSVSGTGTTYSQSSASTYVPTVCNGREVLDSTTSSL

Consider `CN1C(=O)c2cccn2-c2ccccc2C1(C)C` [Example 221, 5,6,6-Trimethyl-5,6-dihydro-benzo[f]pyrrolo[1,2-a][1,4]diazepin-4-one], for which the melting point (as a rule, the temperature, or range, at which the solid turns liquid) is 127 to 130 °C. Besides, the EC50 – broadly, the midpoint of the concentration-response curve – in data set [1] was above 1 µM.

In turn, `CN1C(=O)c2cccn2-c2cc(-c3cccnc3C(F)(F)F)ccc2C12CC2` [Example 36, 5-Methyl-9-(2-trifluoromethylpyridin-3-yl)-spiro[benzo[f]pyrrolo[1,2-a][1,4]diazepine-6,1′-cyclopropan]-4(5H)-one] gave a melting point of 160 to 165 °C. In data set [1], this compound displayed an EC50 of 0.1 to 1 µM.

Consider `CN(C)c1ccc(-c2ccc3c(c2)-n2cc(-c4nnco4)cc2C(=O)N(C)C32CC2)cn1` [Example 190], for which the melting point is above 250 °C. The EC50 in data set [1] is below 0.1 µM.

In turn, `CN1C(=O)c2cc(-c3ccccc3)nn2-c2cc(N3CCCC3)ccc2C12CC2` [Example 139, 5-Methyl-2-phenyl-9-(pyrrolidin-1-yl)-spiro[benzo[f]pyrazolo[1,5-a][1,4]diazepine-6,1′-cyclopropan]-4(5H)-one] displayed a melting point of 226 to 230 °C. The compound also showed an EC50 in data set [1] above 1 µM.

As to `CN1C(=O)c2cc(-c3ccccc3)cn2-c2ccc(N3CCOCC3)cc2C12CC2` [Example 120, 8-Morpholin-4-yl-5-methyl-2-phenyl-spiro[benzo[f]pyrrolo[1,2-a][1,4]diazepine-6,1′-cyclopropan]-4(5H)-one], the melting point lay in the range of 117 to 123 °C. Further, the EC50 in data set [1] is above 1 µM.

`COc1ncccc1-c1ccc2c(c1)-n1cc(-c3ccccc3)cc1C(=O)N(C)C21CC1` [Example 116, 5-Methyl-2-phenyl-9-(2-methoxy-pyridin-3-yl)-spiro[benzo[f]pyrrolo[1,2-a][1,4]diazepine-6,1′-cyclopropan]-4(5H)-one] gave a melting point of 183 to 186 °C. For the same compound, the 50% effective concentration (EC50) in data set [1] fell in the range of 0.1 to 1 µM.

As for `Cc1ncccc1-c1ccc2c(c1)-n1cccc1C(=O)N(C)C21CC1` [Example 20, 5-Methyl-9-(2-methyl-pyridin-3-yl)-spiro[benzo[f]pyrrolo[1,2-a][1,4]diazepine-6,1′-cyclopropan]-4(5H)-one], the melting point was 200 to 210 °C. The compound further yielded an EC50 in data set [1] of 0.1 to 1 µM.

`Cc1n[nH]c(C)c1-c1ccc2c(c1)-n1cccc1C(=O)N(C)C21CC1` [Example 27, 5-Methyl-9-(3,5-dimethyl-1H-pyrazol-4-yl)-spiro[benzo[f]pyrrolo[1,2-a][1,4]diazepine-6,1′-cyclopropan]-4(5H)-one] registered a melting point of 115 to 125 °C. The 50% effective concentration (EC50) in data set [1] was above 1 µM.

`Cc1ccc(-c2ccc3c(c2)-n2cc(CO)cc2C(=O)N(C)C32CC2)cn1` [Example 202] had a melting point of 144 to 154 °C. The compound also showed an EC50 in data set [1] below 0.1 µM.

`CCN1Cc2ccc(-c3cccnc3C)cc2-n2cc(-c3ccccc3)nc2C1=O` (as salt: hydrochloride) [Example 167, 5-Ethyl-9-(2-methylpyridin-3-yl)-2-phenyl-5,6-dihydro-4H-benzo[f]imidazo[1,2-a][1,4]diazepin-4-one] had a melting point of 200 to 220 °C.

`Cc1ncccc1-c1ccc2c(c1)-n1ccnc1C(=O)N(C)C2` (as salt: hydrochloride) [Example 216, 5-Methyl-9-(2-methylpyridin-3-yl)-5,6-dihydro-4H-benzo[f]imidazo[1,2-a][1,4]diazepin-4-one] had a melting point of 210 to 230 °C.

`CCCc1ncccc1-c1ccc2c(c1)-n1cccc1C(=O)N(C)C21CC1` (as salt: hydrochloride) [Example 61, 5-Methyl-9-(2-propylpyridin-3-yl)-spiro[benzo[f]pyrrolo[1,2-a][1,4]diazepine-6,1′-cyclopropan]-4(5H)-one]: the melting point fell in the range of 150 to 157 °C.

On to `Cc1ncccc1-c1ccc2c(c1)-n1c(F)ccc1C(=O)N(C)C21CC1` (as salt: hydrochloride) [Example 81, 9-(2-Methyl-pyridin-3-yl)-1-fluoro-5-methyl-spiro[benzo[f]pyrrolo[1,2-a][1,4]diazepine-6,1′-cyclopropan]-4(5H)-one], for which the melting point was in the range of 150 to 158 °C.

For the compound `Cc1ncccc1-c1cc(F)c2c(c1)-n1cccc1C(=O)N(C)C21CC1` (as salt: hydrochloride) [Example 73, 7-Fluoro-5-methyl-9-(2-methyl-pyridin-3-yl)-spiro[benzo[f]pyrrolo[1,2-a][1,4]diazepine-6,1′-cyclopropan]-4(5H)-one], the melting point lay in the range of 174 to 188 °C.

Compound `Cc1ncccc1-c1ccc2c(c1)-n1cc(CC3CCCC3)cc1C(=O)N(C)C21CC1` (as salt: hydrochloride) [Example 196] returned a melting point of 165 to 176 °C.

On to `CN1Cc2ccc(-c3ccc(N)nc3)cc2-n2cc(-c3ccccc3)cc2C1=O` (as salt: hydrochloride) [Example 165, 9-(6-Amino-pyridin-3-yl)-5-methyl-2-phenyl-5,6-dihydro-benzo[f]pyrrolo[1,2-a][1,4]diazepin-4-one], for which the melting point is above 250 °C.

`Cc1ncccc1-c1ccc2c(c1)-n1cc(C(F)F)cc1C(=O)N(C)C21CC1` (as salt: hydrochloride) [Example 201]: the melting point fell in the range of 240 to 250 °C.

With `CCc1ncccc1-c1ccc2c(c1)-n1cc(-c3ccccc3)cc1C(=O)N(C)C21CC1` (as salt: hydrochloride) [Example 99, 5-Methyl-2-phenyl-9-(2-ethyl-pyridin-3-yl)-spiro[benzo[f]pyrrolo[1,2-a][1,4]diazepine-6,1′-cyclopropan]-4(5H)-one], the melting point was 179 to 183 °C.

Take `CCC1c2ccc(-c3cccnc3C)cc2-n2cccc2C(=O)N1C` (stereo not drawn) (as salt: hydrochloride) [Example 220, 6-Ethyl-5-methyl-9-(2-methyl-pyridin-3-yl)-5,6-dihydro-benzo[f]pyrrolo[1,2-a][1,4]diazepin-4-one]: the melting point is 160 to 170 °C.

On to `CN1C(=O)c2cccn2-c2cc(-c3ccc(N4CCCCC4)nc3)ccc2C12CC2` (as salt: hydrochloride) [Example 43, 5-Methyl-9-(3,4,5,6-tetrahydro-2H-[1,2′]bipyridinyl-5′-yl)-spiro[benzo[f]pyrrolo[1,2-a][1,4]diazepine-6,1′-cyclopropan]-4(5H)-one], for which the melting point was in the range of 188 to 193 °C.

`CCc1cc2n(c1)-c1cc(-c3cccnc3C)ccc1C1(CC1)N(C)C2=O` (as salt: hydrochloride) [Example 197] showed a melting point of 165 to 175 °C.

For `CN(C)c1ncccc1-c1ccc2c(c1)-n1cc(-c3ccccc3)cc1C(=O)N(C)C21CC1` (as salt: hydrochloride) [Example 119, 5-Methyl-2-phenyl-9-(2-dimethylamino-pyridin-3-yl)-spiro[benzo[f]pyrrolo[1,2-a][1,4]diazepine-6,1′-cyclopropan]-4(5H)-one], the melting point lay in the range of 209 to 213 °C.

With `CC(=O)c1cc2n(c1)-c1cc(-c3cccnc3C)ccc1C1(CC1)N(C)C2=O` (as salt: hydrochloride) [Example 195], the melting point fell in the range of 200 to 220 °C.

`[2H]C([2H])([2H])N1C(=O)c2cc(C(=O)O)cn2-c2cc(-c3ccc(F)nc3)ccc2C12CC2` [Example 178, 5-(Methyl-d3)-9-(6-fluoro-pyridin-3-yl)-4-oxo-4,5-dihydrospiro[benzo[f]pyrrolo[1,2-a][1,4]diazepine-6,1′-cyclopropane]-2-carboxylic acid] displayed a melting point above 250 °C.

Take `CCc1ncccc1-c1ccc2c(c1)-n1cc(C)cc1C(=O)N(C)C21CC1` (as salt: hydrochloride) [Example 199]: the melting point is 179 to 184 °C.

In turn, `Cc1ncccc1-c1ccc2c(c1)-n1cc(-c3ncc[nH]3)cc1C(=O)N(C)C21CC1` (as salt: hydrochloride) [Example 184] returned a melting point above 250 °C.

For the compound `Cc1ncccc1-c1ccc2c(c1)-n1cncc1C(=O)N(C)C2` (as salt: hydrochloride) [Example 215, 5-Methyl-9-(2-methylpyridin-3-yl)-5,6-dihydro-4H-benzo[f]imidazo[1,5-a][1,4]diazepin-4-one], the melting point was 158 to 170 °C.

`CN1C(=O)c2cc(C(=O)O)cn2-c2cc(-c3ccc(F)nc3)ccc2C12CC2` [Example 177, 5-Methyl-9-(6-fluoro-pyridin-3-yl)-4-oxo-4,5-dihydrospiro[benzo[f]pyrrolo[1,2-a][1,4]diazepine-6,1′-cyclopropane]-2-carboxylic acid] gave a melting point above 250 °C.

The compound `Cc1ncccc1-c1ccc2c(c1)-n1cc(-c3cc[nH]n3)cc1C(=O)N(C)C21CC1` (as salt: hydrochloride) [Example 146] had a melting point of 240 to 250 °C.

For `Cc1ccnc(C)c1-c1ccc2c(c1)-n1cccc1C(=O)N(C)C21CC1` (as salt: hydrochloride) [Example 65, 5-Methyl-9-(2,4-dimethylpyridin-3-yl)-spiro[benzo[f]pyrrolo[1,2-a][1,4]diazepine-6,1′-cyclopropan]-4(5H)-one], the melting point lay in the range of 200 to 208 °C.

Compound `CN1C(=O)c2cc(-c3ccccc3)nn2-c2cc(-c3ccc(N)nc3)ccc2C12CC2` (as salt: hydrochloride) [Example 127, 9-(6-Amino-pyridin-3-yl)-5-methyl-2-phenyl-spiro[benzo[f]pyrazolo[1,5-a][1,4]diazepine-6,1′-cyclopropan]-4(5H)-one] displayed a melting point above 250 °C.

As to `Cc1ncccc1-c1ccc2c(c1)-n1cc(C3CCCC3)cc1C(=O)N(C)C21CC1` (as salt: hydrochloride) [Example 156], the melting point was 230 to 235 °C.

Regarding `CCc1ncccc1-c1ccc2c(c1)-n1cc(-c3ccccc3F)cc1C(=O)N(C)C21CC1` (as salt: hydrochloride) [Example 162], the melting point lay in the range of 189 to 195 °C.

Values taken from US11008323B2, “Substituted tricyclic 1,4-benzodiazepinone derivatives as allosteric modulators of group II metabotropic glutamate receptors” (Domain Therapeutics, priority 2015, dated 2021).
